Results reported in ChEMBL document CHEMBL1201862, “PubChem BioAssay data set” (2004).
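Exposure lasted 48 hours, with cells grown in 96-well plates and compounds tested at five concentrations. GI50 is the concentration that inhibits growth by half.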 Active and inactive are the calls of the source. Cut-off read from the data, not from the text of the source: active = GI50 up to about 1.1 µM and inactive = higher.

Experiments:
Experiment in all cases: NCI anticancer screen, dose series, 48 h
SK-OV-3 = tested on: SK-OV-3
NCI-H460 = tested on: NCI-H460
COLO 205 = tested on: COLO 205
MOLT-4 = tested on: MOLT-4
UACC-62 = tested on: UACC-62
XF498 = tested on: XF498
UO-31 = tested on: UO-31
LOX IMVI = tested on: LOX IMVI
A498 = tested on: A498
SK-MEL-5 = tested on: SK-MEL-5
SF-539 = tested on: SF-539
EKVX = tested on: EKVX
OVCAR-8 = tested on: OVCAR-8
Malme-3M = tested on: Malme-3M
SF-295 = tested on: SF-295
HOP-62 = tested on: HOP-62
RXF 393 = tested on: RXF 393
K562 = tested on: K562
KM12 = tested on: KM12
SN12C = tested on: SN12C
HT-29 = tested on: HT-29
CAKI-1 = tested on: CAKI-1
IGROV-1 = tested on: IGROV-1
U-251 = tested on: U-251
SNB-19 = tested on: SNB-19
HL-60 = tested on: HL-60
SF-268 = tested on: SF-268
786-0 = tested on: 786-0
NCI-H226 = tested on: NCI-H226
A549 = tested on: A549
RXF 631 = tested on: RXF 631
HOP-18 = tested on: HOP-18
SK-MEL-28 = tested on: SK-MEL-28
DLD-1 = tested on: DLD-1
SW-620 = tested on: SW-620
SNB-78 = tested on: SNB-78
DMS-273 = tested on: DMS-273
M19-MEL = tested on: M19-MEL
LXFL 529 = tested on: LXFL 529
SR = tested on: SR
DMS-114 = tested on: DMS-114
HOP-92 = tested on: HOP-92
SK-MEL-2 = tested on: SK-MEL-2
KM-20L2 = tested on: KM-20L2
ACHN = tested on: ACHN
TK-10 = tested on: TK-10
UACC-257 = tested on: UACC-257
OVCAR-5 = tested on: OVCAR-5
OVCAR-4 = tested on: OVCAR-4
CCRF-CEM = tested on: CCRF-CEM
NCI-H23 = tested on: NCI-H23

Measured: GI50

O=[N+]([O-])c1ccc(C2SCc3nc4ccccc4n32)cc1 (stereo unspecified)
inactive: SK-OV-3 92.9 µM | NCI-H460 > 100 µM | COLO 205 > 100 µM | MOLT-4 28.1 µM | UACC-62 32.1 µM | XF498 12.3 µM | UO-31 24.8 µM | LOX IMVI 74.1 µM | A498 88.3 µM | SK-MEL-5 17.4 µM | SF-539 > 100 µM | EKVX 44.3 µM | OVCAR-8 > 100 µM | Malme-3M 40.1 µM | SF-295 32.6 µM | HOP-62 > 100 µM | RXF 393 36.7 µM | K562 33.4 µM | KM12 73.3 µM | SN12C 56.1 µM | HT-29 > 100 µM | CAKI-1 61.4 µM | IGROV-1 19.8 µM | U-251 93.8 µM | SNB-19 > 100 µM | HL-60 43.9 µM | SF-268 > 100 µM | 786-0 > 100 µM | NCI-H226 29.2 µM | A549 50.4 µM | RXF 631 > 100 µM | HOP-18 88.3 µM | SK-MEL-28 > 100 µM | DLD-1 89.7 µM | SW-620 > 100 µM | SNB-78 > 100 µM | DMS-273 54.1 µM | M19-MEL 81.8 µM | LXFL 529 43.4 µM | SR 53.6 µM | DMS-114 35.1 µM | HOP-92 23.1 µM | SK-MEL-2 60.1 µM | KM-20L2 > 100 µM | ACHN 47.8 µM | TK-10 43.4 µM | UACC-257 42.4 µM | OVCAR-5 17.6 µM | OVCAR-4 76.9 µM | CCRF-CEM 65.9 µM | NCI-H23 26.7 µM
